# US20240092739A1, “COMPOUNDS AND METHODS OF USE” (Ferro Therapeutics, Inc, priority 2020, published 2024)
# Like-named read-outs stand apart in the source and are kept apart here.
# Legend:
# A431 cells = experiment: Cell proliferation (Alamar Blue) assay, A431 cells; assay type: cell-based; conditions: Homo sapiens, A-431, A431 cells, Alamar Blue
# Protocol: (§1) Cell viability assay was performed to assess the potency of the compounds in human cancer cell lines 786-0 (renal cell carcinoma) and SJSA-1 (osteosarcoma). Additional cell lines, such as pancreatic cancer cell lines (Panc 02.13, BxPC-3, Panc 12, Panc 02.03, Panc 6.03, PSN-1, HPAC, and Capan-1), prostate cancer cell lines (PC-3, DU145, […], NCI-H660, 1PH1 LNCaP, BM-1604, and MDA PCa 2b), etc., can be tested in a similar method.
# (§2) Cells (SJSA-1, 786-0 and A431) were seeded (5000 cells/100 μL/well) in 96-well tissue culture plate and incubated at 37° C./500 CO2 for 16-24 hours. The cells were then treated with compounds (25 μL of 5×). The compound concentrations were 10-0.0005 μM prepared in 3-fold serial dilutions with final DMSO concentration of 1%. The plates were then incubated for 24 h at 37° C./[…] in a moist environment. Then Alamar Blue™ reagent (final concentration 1×-12.5 μL) was added to each well and incubated for 1.5 hours at 37° C./500 CO2. The plates were read on fluorescence reader at 540 nm excitation and 590 nm emission wavelengths. The IC50 values were subsequently determined using a sigmoidal dose-response curve (variable slope) in GraphPad Prism® 5 software. Tables A-3 and B-11 show cell proliferation data for exemplary compounds as described herein.
# [1] = test system: 786-O (renal cell carcinoma) cells; experiment: Cell proliferation (Alamar Blue) assay, 786-O cells; assay type: cell-based; conditions: Homo sapiens, 786-0, 786-O cells, Alamar Blue
# Protocol: as §1, §2
# [2] = 24 h compound treatment, read-out: IC50 (μM) A431
# [3] = 24 h compound treatment, read-out: IC50 (μM) 786-O
SMILES,IC50 (A431 cells; [2]) [µM],"IC50 [1, 3] [µM]","IC50 (A431 cells; 24 h compound incubation, read-out: Cell proliferation IC50 (μM) A431) [µM]","IC50 ([1]; 24 h compound incubation, read-out: Cell proliferation IC50 (μM) 786-O) [µM]"
C#CC(=O)N1[C@@H](CCCC)Cc2cc(F)ccc2[C@@H]1c1ccc(NC23CC4CC(CC(C4)C2)C3)cc1 [Compound B-40],4.52,0.006,,
C#CC(=O)N1[C@@H](CCCC)Cc2cc(OC)ccc2[C@@H]1c1ccccc1 [Compound B-29],8.73,0.037,,
CCCC[C@H]1Cc2cc(OC)ccc2[C@H](c2ccc(NC34CC5CC(CC(C5)C3)C4)c(Cl)c2)N1C(=O)C#C[Si](C)(C)C [Compound A-46],,,≥ 10,0.31
C#CC(=O)N1[C@@H](CCCC)Cc2cc(OC)ccc2[C@H]1C12CC(F)(C1)C2 [Compound B-6],> 1,0.067,,
C#CC(=O)N1[C@@H](CCCC)Cc2cc(OC)ccc2[C@@H]1c1ccc(N2CCC(F)(F)C2)cc1 [Compound B-14],> 1,0.06,,
C#CC(=O)N1CCc2cc(OC)ccc2C1c1ccc(C#N)cc1 (stereo not drawn) [Compound B-28],7.5,0.18,,
C#CC(=O)N1[C@@H](COCC)Cc2cc(OC)ccc2[C@@H]1c1ccc(C#N)cc1 [Compound B-39],> 10,0.195,,
C#CC(=O)N1[C@@H](CC2CC2)Cc2cc(OC)ccc2[C@@H]1c1ccc(C#N)cc1 [Compound B-37],> 10,0.049,,
C#CC(=O)N1CCc2cc(OC)ccc2C1c1ccc(F)cc1 (stereo not drawn) [Compound B-26],> 10,0.395,,
"C#CC(=O)N1[C@@H](c2ccc(C#N)cc2)c2ccc(OC)cc2C[C@@H]1C [Compound B-32, 4-[(1S,3S)-6-methoxy-3-methyl-2-(prop-2-ynoyl)-1,2,3,4-tetrahydroisoquinolin-1-yl]benzonitrile]",3.5,0.42,,
C#CC(=O)N1[C@@H](CCCC)Cc2cc(OC)ccc2[C@@H]1c1ccc(NC23CC4CC(CC(C4)C2)C3)c(C#N)c1 [Compound B-8],,0.021,,
C#CC(=O)N1[C@@H](CCCC)Cc2cc(OC)ccc2[C@@H]1C12CC(F)(C1)C2 [Compound B-5],> 1,0.145,,
C#CC(=O)N1[C@@H](c2ccc(NC34CC5CC(CC(C5)C3)C4)cc2)c2ccc(OC)cc2C[C@@H]1C1CCC1 [Compound B-4],,0.016,,
C#CC(=O)N1CCc2cc(OC)ccc2C1c1ccccc1 (stereo not drawn) [Compound B-24],3.5,0.198,,
C#CC(=O)N1[C@@H](CCCC)Cc2cc(OC)ccc2[C@H]1c1ccc(NC23CC4CC(CC(C4)C2)C3)cc1 [Compound B-2],> 1,0.192,,
C#CC(=O)N1[C@@H](CCCC)Cc2cc(OC)ccc2[C@@H]1c1ccc(C#N)cc1 [Compound B-31],3.67,0.016,,

# The next lines start with results.
IC50 (A431 cells; [2]) [µM],"IC50 [1, 3] [µM]",SMILES,"IC50 (A431 cells; 24 h compound incubation, read-out: Cell proliferation IC50 (μM) A431) [µM]","IC50 ([1]; 24 h compound incubation, read-out: Cell proliferation IC50 (μM) 786-O) [µM]"
,0.047,C#CC(=O)N1[C@@H](COC)Cc2cc(OC)ccc2[C@H]1c1ccc(NC23CC4CC(CC(C4)C2)C3)cc1 [Compound B-45],,
4.1,0.006,C#CC(=O)N1[C@@H](CCC)Cc2cc(OC)ccc2[C@@H]1c1ccc(NC23CC4CC(CC(C4)C2)C3)cc1 [Compound B-43],,
6.58,0.0145,"C#CC(=O)N1[C@@H](CCCC)Cc2ccc(OC)cc2[C@@H]1c1ccc(NC23CC4CC(CC(C4)C2)C3)cc1 [Compound B-42, 1-((1S,3S)-1-(4-(((3R,5R,7R)-adamantan-1-yl)amino)phenyl)-3-butyl-7-methoxy-3,4-dihydroisoquinolin-2(1H)-yl)prop-2-yn-1-one]",,
,0.01,C#CC(=O)N1[C@@H](CC2CC2)Cc2cc(OC)ccc2[C@@H]1c1ccc(NC23CC4CC(CC(C4)C2)C3)cc1 [Compound B-50],,
4.9,0.072,C#CC(=O)N1[C@H](c2ccc(NC34CC5CC(CC(C5)C3)C4)cc2)c2ccc(OC)cc2C[C@@H]1C1CCC1 [Compound B-51],,
> 1,0.054,C#CC(=O)N1[C@@H](CCC)Cc2cc(OC)ccc2[C@H]1c1ccc(NC23CC4CC(CC(C4)C2)C3)cc1 [Compound B-44],,
3.88,0.0035,C#CC(=O)N1[C@@H](COC)Cc2cc(OC)ccc2[C@@H]1c1ccc(NC23CC4CC(CC(C4)C2)C3)cc1 [Compound B-41],,
